As usually defined, the GI50 is the concentration that inhibits growth by half.

Data on one molecule can be found in patent publication US8252832B2, “Kinesin inhibitors as cancer therapeutics” (Novartis AG, priority 2007, dated 2012).

Assay in all cases: CellTiter-Glo, NCI60 panel
Holding throughout (format): cell-based
(Cellular ATP, detected with luciferase, serves as a proxy for viable cell number.)

For one assay, the system named is CCRF-CEM. Conditions: Leukemia; for GI50: Homo sapiens. In a few lines:
(§1)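 Compounds are added to adherent cells after a 24 h attachment period or to non-adherent cells immediately, and plates are incubated 48 h at 37° C. Viability is then read as ATP-driven luciferase luminescence. Data give the concentration needed for half-maximal growth reduction.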

A further assay concerns M14. To be noted: Melanoma; for GI50: Homo sapiens. The method in brief:
as §1

In another assay the test system is MOLT-4. To be noted: Leukemia; for GI50: Homo sapiens. In a few lines: as §1
The next assay concerns OVCAR-3. Conditions: Ovarian; for GI50: Homo sapiens. The method in brief: as §1
The next assay has as its system OVCAR-5. Conditions: Ovarian; for GI50: Homo sapiens. The method in brief:
as §1

In a further assay the test system is TK-10. To be noted: Renal; for GI50: Homo sapiens. The method in brief:
as §1

The test system of another assay is U251. To be noted: for GI50: Homo sapiens, U-251, CNS. The method in brief: as §1
Setting [1] is: GI50 in nM, read-out: Log(GI50) (converted).

The structures appear in SMILES notation. Read-outs that look alike come from different tables or passages of the source.

In the case of `CC(C)(C)[C@H](c1nc(-c2cc(F)ccc2F)cn1Cc1ccccc1)N(CC[C@H](N)CF)C(=O)CO` [Compound IIa], the 50% growth inhibitory concentration (GI50) in the assay with CCRF-CEM (setting [1]) is 0.215 nM; in the assay with CCRF-CEM (read-out: GI50), 0.215 nM; in the assay on M14 (setting [1]) it was 0.209 nM; with M14 (read-out: GI50), 0.209 nM; with MOLT-4 (setting [1]), 0.331 nM; in the assay with MOLT-4 (read-out: GI50), 0.331 nM. In addition, the 50% growth inhibitory concentration (GI50) in the assay with OVCAR-3 (setting [1]), with OVCAR-3 (read-out: GI50), in the assay on OVCAR-5 (setting [1]), in the assay on OVCAR-5 (read-out: GI50), in the assay with TK-10 (setting [1]) and with TK-10 (read-out: GI50) was 10 nM each time. Also, the GI50 in the assay with U251 (setting [1]) and in the assay on U251 (read-out: GI50) was 0.239 nM in each case. The “Differential vs mean Log(GI50)” value is 0.999 with CCRF-CEM; 1.011 in the assay on M14; 0.811 in the assay on MOLT-4; −0.669 in the assay with OVCAR-3; −0.669 with OVCAR-5; −0.669 in the assay on TK-10. Further, the “Differential vs mean Log(GI50)” value in the assay with U251 (CNS) is reported as 0.953.
